BindingDB's records for patent US20250313563 (The Broad Institute, 2025)
“And” between values parts separate entries of the source, which are not always exact repeats. Equal entries are not always repeated.

How the values were obtained:
[1] = biological target: Glycogen synthase kinase-3 beta (Homo sapiens, UniProt P49841); assay: TR-FRET Assay
Summary of the method: (§1)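 TR-FRET readout: streptavidin-d2 (40 nM in added detection mix) plus Tb-anti-pSer641 Ab (2 nM in mix). Steps were 30 min compound preincubation, kinase reaction, then EDTA stop.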

[2] = biological target: Glycogen synthase kinase-3 alpha (Homo sapiens, UniProt P49840); assay: TR-FRET Assay
Summary of the method: as §1

Sequence of Glycogen synthase kinase-3 beta (P49841 whole entry): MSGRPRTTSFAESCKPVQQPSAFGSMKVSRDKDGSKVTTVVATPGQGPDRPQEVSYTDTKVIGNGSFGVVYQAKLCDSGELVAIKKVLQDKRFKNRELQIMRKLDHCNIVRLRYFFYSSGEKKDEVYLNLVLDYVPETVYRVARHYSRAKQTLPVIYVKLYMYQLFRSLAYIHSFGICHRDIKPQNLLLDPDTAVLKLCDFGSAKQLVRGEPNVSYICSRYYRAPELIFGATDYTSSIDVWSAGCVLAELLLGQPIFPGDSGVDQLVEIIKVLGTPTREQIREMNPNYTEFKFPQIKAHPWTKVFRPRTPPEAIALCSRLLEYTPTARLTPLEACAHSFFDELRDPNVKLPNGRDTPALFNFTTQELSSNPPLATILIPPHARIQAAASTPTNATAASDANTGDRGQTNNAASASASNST
Sequence of Glycogen synthase kinase-3 alpha (P49840 whole entry): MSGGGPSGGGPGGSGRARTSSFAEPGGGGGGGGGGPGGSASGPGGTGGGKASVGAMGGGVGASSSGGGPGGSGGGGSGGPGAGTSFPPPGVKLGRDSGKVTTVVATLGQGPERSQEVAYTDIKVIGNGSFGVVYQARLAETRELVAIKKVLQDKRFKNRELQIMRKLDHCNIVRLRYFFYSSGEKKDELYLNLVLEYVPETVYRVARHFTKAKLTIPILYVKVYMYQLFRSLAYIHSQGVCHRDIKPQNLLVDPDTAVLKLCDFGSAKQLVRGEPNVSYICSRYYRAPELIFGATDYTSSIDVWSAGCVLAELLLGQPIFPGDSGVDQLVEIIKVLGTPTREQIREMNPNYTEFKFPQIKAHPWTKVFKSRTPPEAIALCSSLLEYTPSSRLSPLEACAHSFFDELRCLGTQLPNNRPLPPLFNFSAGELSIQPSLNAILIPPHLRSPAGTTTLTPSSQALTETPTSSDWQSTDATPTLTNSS

Row | SMILES | IC50 [1] | IC50 [2]
1 | CCC(C)C(=O)N1CC2(C1)CC1(CO2)C2=C(N=NC2)NC2=C1C(=O)CC(C)(C)C2 (stereo unspecified) [US20250313563, Compound 947270] | 100 to 1000 nM | < 100 nM
2 | CC[C@]1(c2cccc(-c3cnn(C)c3)c2)C2=CN=NC2NC2=C1C(=O)CC(C)(C)[C@@H]2F (stereo partly specified) [US20250313563, Compound 957504] | 1000 to 5000 nM | 100 to 1000 nM
3 | CCC1(c2cccc(C(F)(F)C(F)(F)F)c2)C2=CN=NC2NC2=C1C(=O)CC(C)(C)C2 (stereo unspecified) [US20250313563, Compound 948615] | < 100 nM | < 100 nM
4 | CCC1(c2cccc(N(C)C(=O)COC)c2)C2=CN=NC2NC2=C1C(=O)CC(C)(C)C2 (stereo unspecified) [US20250313563, Compound 889580] | 100 to 1000 nM | < 100 nM
5 | CCC1(c2cccc(N(C)c3nccn3C)c2)C2=CN=NC2NC2=C1C(=O)CC(C)(C)C2 (stereo unspecified) [US20250313563, Compound 885402] | 1000 to 5000 nM | 100 to 1000 nM
6 | CCC1(c2cccc(N(C)c3ccc(C)nc3)c2)C2=CN=NC2NC2=C1C(=O)CC(C)(C)C2 (stereo unspecified) [US20250313563, Compound 918272] | 100 to 1000 nM | 100 to 1000 nM
7 | CC[C@@]1(c2cccc(-c3ccncn3)c2)C2=CN=NC2NC2=C1C(=O)CC(C)(C)C2 (stereo partly specified) [US20250313563, Compound 810489] | > 5000 nM | 1000 to 5000 nM
8 | CC[C@@]1(c2cccc(-c3ccnc(C)c3)c2)C2=CN=NC2NC2=C1C(=O)NC1(CCC1)C2 (stereo partly specified) [US20250313563, Compound 949520] | 100 to 1000 nM | < 100 nM
9 | CC1CCC12C1=C(N=NC1)NC1=C2C(=O)CC(C)(C)C1 (stereo unspecified) [US20250313563, Compound 949640] | 1000 to 5000 nM | 100 to 1000 nM
10 | CC[C@]1(c2cccc(N(C)c3ncccn3)c2)C2=C(CC(C)(C)NC2=O)NC2N=NC(C(F)(F)F)=C21 (stereo partly specified) [US20250313563, Compound 949180] | 100 to 1000 nM | < 100 nM
11 | CC[C@]1(c2cccc(N3CCOc4ccccc43)c2)C2=CN=NC2NC2=C1C(=O)CC(C)(C)C2 (stereo partly specified) [US20250313563, Compound 932635] | > 5000 nM | > 5000 nM
12 | CCC1(c2cccc(C(F)(F)F)c2)C2=CN=NC2NC2=C1C(=O)N(c1ncn(C)c1C)CC2 (stereo unspecified) [US20250313563, Compound 951598] | > 5000 nM | 100 to 1000 nM
13 | CCC1(c2cccc(N(C)C(=O)c3ccccc3)c2)C2=CN=NC2NC2=C1C(=O)CC(C)(C)C2 (stereo unspecified) [US20250313563, Compound 909201] | 100 to 1000 nM | < 100 nM
14 | CCC1(c2cccc(C(F)F)c2)C2=C(CC(C)(C)NC2=O)NC2N=NC(C)=C21 (stereo unspecified) [US20250313563, Compound 947865] | < 100 nM | < 100 nM
15 | CC1(C)CC(=O)C2=C(C1)NC1=C(CN=N1)C21CN(C2CCOCC2)C1 [US20250313563, Compound 932651] | > 5000 nM | > 5000 nM
16 | CC[C@]1(c2cccc(-c3ccnc(C)c3)c2)C2=CN=NC2NC2=C1C(=O)NC1(CCCC1)C2 (stereo partly specified) [US20250313563, Compound 948660] | < 100 nM | < 100 nM
17 | Cc1cccc(S(=O)(=O)N2CC[C@@]3(C2)C2=C(N=NC2)NC2=C3C(=O)CC(C)(C)C2)c1 [US20250313563, Compound 951863] | 100 to 1000 nM | 100 to 1000 nM
18 | CC[C@]1(c2cccc(-c3ccnc4c3cnn4C)c2)C2=CN=NC2NC2=C1C(=O)NC(C)(C)C2 (stereo partly specified) [US20250313563, Compound 948817] | > 5000 nM | > 5000 nM
19 | O=C1C[C@H](C(F)(F)F)CC2=C1C1(CCOCC1)C1=C(N=NC1)N2 [US20250313563, Compound 901477] | 1000 to 5000 nM | 100 to 1000 nM
20 | CC[C@]1(c2cccc(C(C)C)c2)C2=CN=NC2NC2=C1C(=O)CC(C)(C)C2 (stereo partly specified) [US20250313563, Compound 810373] | < 100 nM and 1000 to 5000 nM | < 100 nM and 100 to 1000 nM
21 | CC1(C)CC2=C(C(=O)N1)C1(CCN(S(=O)(=O)c3cnn(C(C)(C)C)c3)CC1)C1=C(N=NC1)N2 [US20250313563, Compound 947835] | 100 to 1000 nM | < 100 nM
22 | Cc1cnccc1[C@H]1CC[C@]2(CC1)C1=C(N=NC1)NC1=C2C(=O)CC(C)(C)C1 [US20250313563, Compound 949318] | 100 to 1000 nM | 100 to 1000 nM
23 | CC[C@]1(c2cccc(-c3ccnc(OC)c3)c2)C2=CN=NC2NC2=C1C(=O)CC(C)(C)C2 (stereo partly specified) [US20250313563, Compound 911988] | 100 to 1000 nM and > 5000 nM | < 100 nM and 100 to 1000 nM
24 | CC[C@]1(c2cccc(-c3cc(C)nnc3C)c2)C2=C(CC(C)(C)NC2=O)NC2N=NC(C)=C21 (stereo partly specified) [US20250313563, Compound 949332] | > 5000 nM | 1000 to 5000 nM
25 | CC1(C)CC(=O)C2=C(C1)NC1=C(CN=N1)C21COC1 [US20250313563, Compound 889569] | 100 to 1000 nM | 100 to 1000 nM
26 | CCC1(c2cccc(-c3cnn(C)c3C)c2)C2=CN=NC2NC2=C1C(=O)NC(C)(C)C2 (stereo unspecified) [US20250313563, Compound 944021] | 100 to 1000 nM | < 100 nM
27 | CC[C@]1(c2cccc(C(F)(F)F)c2)C2=CN=NC2NC2=C1C(=O)N(c1cc(C)n(C)n1)CC2 (stereo partly specified) [US20250313563, Compound 951939] | 100 to 1000 nM | < 100 nM
28 | CC1(C)CC(=O)C2=C(C1)NC1=C(CN=N1)C21CN(Cc2cnc3ccccn23)C1 [US20250313563, Compound 932654] | > 5000 nM | > 5000 nM

More lines, now with the values ahead:

Row | IC50 [1] | IC50 [2] | SMILES
29 | < 100 nM | < 100 nM | CCC1(c2cccc(-c3cncn3C)c2)C2=C(CC(C)(C)CC2=O)NC2N=NC(C)=C21 (stereo unspecified) [US20250313563, Compound 884001]
30 | < 100 nM | < 100 nM | CC[C@]1(c2cccc(S(C)(=O)=O)c2)C2=C(CC(C)(C)NC2=O)NC2N=NC(C)=C21 (stereo partly specified) [US20250313563, Compound 947811]
31 | > 5000 nM | 1000 to 5000 nM | CCC1(c2cccc(CNC)c2)C2=CN=NC2NC2=C1C(=O)CC(C)(C)C2 (stereo unspecified) [US20250313563, Compound 826651]
32 | < 100 nM | < 100 nM | CCC1(c2cccc(-c3cnnn3C(C)C)c2)C2=CN=NC2NC2=C1C(=O)CC(C)(C)C2 (stereo unspecified) [US20250313563, Compound 947397]
33 | > 5000 nM | > 5000 nM | CC[C@@]1(c2cccc(C(F)(F)F)c2)C2=CN=NC2NC2=C1C(=O)N[C@@H](C)C2 (stereo partly specified) [US20250313563, Compound 912099]
34 | < 100 nM and 1000 to 5000 nM | < 100 nM and 100 to 1000 nM | CCC1(c2cccc(-c3ccnc(C)c3)c2)C2=C(CC(C)(C)NC2=O)NC2N=NC(Cl)=C21 (stereo unspecified) [US20250313563, Compound 948998]
35 | < 100 nM and 1000 to 5000 nM | < 100 nM and 100 to 1000 nM | CC[C@@]1(c2cccc(-c3c(C)nn(C)c3C)c2)C2=CN=NC2NC2=C1C(=O)NC(C)(C)C2 (stereo partly specified) [US20250313563, Compound 947408]
36 | < 100 nM and 1000 to 5000 nM | < 100 nM | CC[C@@]1(c2cccc(-c3ccncc3C(F)(F)F)c2)C2=CN=NC2NC2=C1C(=O)NC(C)(C)C2 (stereo partly specified) [US20250313563, Compound 952025]
37 | 100 to 1000 nM | 100 to 1000 nM | CCC1(c2cccc(S(C)(=O)=O)c2)C2=C(CC(C)(C)NC2=O)NC2N=NC(C)=C21 (stereo unspecified) [US20250313563, Compound 947395]
38 | > 5000 nM | 1000 to 5000 nM | CC[C@]1(c2cccc(-c3cn(C)nc3C)c2)C2=CN=NC2NC2=C1C(=O)CC(C)(C)C2 (stereo partly specified) [US20250313563, Compound 945545]
39 | 1000 to 5000 nM | 100 to 1000 nM | CC[C@@]1(c2ccccc2)C2=CN=NC2NC2=C1C(=O)C[C@@](C)(C(F)(F)F)C2 (stereo partly specified) [US20250313563, Compound 819569]
40 | 1000 to 5000 nM | 100 to 1000 nM | CC[C@]1(c2cccc([C@H](C)c3ncccn3)c2)C2=CN=NC2NC2=C1C(=O)CC(C)(C)C2 (stereo partly specified) [US20250313563, Compound 948057]
41 | 100 to 1000 nM | < 100 nM | CC1(C)CC(=O)C2=C(C1)NC1=C(CN=N1)C21COC2(CN(C(=O)C3(C)CC(F)C3)C2)C1 (stereo unspecified) [US20250313563, Compound 947271]
42 | 1000 to 5000 nM | 100 to 1000 nM | CC[C@]1(c2cccc(Br)c2)C2=CN=NC2NC2=C1C(=O)[C@@H](F)C(C)(C)C2 (stereo partly specified) [US20250313563, Compound 835315]
43 | 1000 to 5000 nM | 100 to 1000 nM | CCn1nc(C)c(S(=O)(=O)N2CCC3(CC2)C2=C(N=NC2)NC2=C3C(=O)CC(C)(C)C2)c1C [US20250313563, Compound 945679]
44 | < 100 nM | < 100 nM | Cc1ccccc1CC(=O)N1CC2(C1)CC1(CO2)C2=C(N=NC2)NC2=C1C(=O)CC(C)(C)C2 (stereo unspecified) [US20250313563, Compound 947295]
45 | 1000 to 5000 nM | 100 to 1000 nM | CC1CC(C(=O)N2CC3(C2)C[C@]2(CO3)C3=C(N=NC3)NC3=C2C(=O)CC(C)(C)C3)C1 (stereo partly specified) [US20250313563, Compound 947732]
46 | < 100 nM and 1000 to 5000 nM | < 100 nM and 100 to 1000 nM | CC[C@@]1(c2cccc(-c3ccnc(C)c3Cl)c2)C2=CN=NC2NC2=C1C(=O)NC(C)(C)C2 (stereo partly specified) [US20250313563, Compound 948361]
47 | > 5000 nM | > 5000 nM | CC[C@@]1(c2cccc(Br)c2)C2=CN=NC2NC2=C1C(=O)[C@H](F)C(C)(C)C2 (stereo partly specified) [US20250313563, Compound 835313]
48 | 100 to 1000 nM | < 100 nM | CC1(C)CC(=O)C2=C(C1)NC1=C(CN=N1)[C@]21CC[C@H](C(F)(F)F)C1 [US20250313563, Compound 952435]
49 | 100 to 1000 nM | < 100 nM | CC1(C)CC(=O)C2=C(C1)NC1=C(CN=N1)C21CCN(S(=O)(=O)c2cnnn2-c2ccccc2)CC1 [US20250313563, Compound 947466]
50 | 100 to 1000 nM | 100 to 1000 nM | CC1(C)CC(=O)C2=C(C1)NC1=C(CN=N1)C21CCOCC1 [US20250313563, Compound 826648]
51 | 100 to 1000 nM and 1000 to 5000 nM | < 100 nM and 100 to 1000 nM | CC[C@@]1(c2cccc(-c3cc(C)nnc3C)c2)C2=CN=NC2NC2=C1C(=O)NC(C)(C)C2 (stereo partly specified) [US20250313563, Compound 949331]
52 | < 100 nM | < 100 nM | Cn1nc(C(F)(F)F)cc1S(=O)(=O)N1CCC2(CC1)C1=C(N=NC1)NC1=C2C(=O)CC(C)(C)C1 [US20250313563, Compound 947606]
53 | 1000 to 5000 nM | < 100 nM | CCC1(c2cccc(-c3cnn(C)c3)c2)C2=CN=NC2NC2=C1C(=O)CC(C)C2 (stereo unspecified) [US20250313563, Compound 816752]
